# Patent US8426408B2, “Pyrimidine inhibitors of kinases” (AbbVie Inc., priority 2009, dated 2013)
# pKi: −log10 of the molar value.
# What was measured:
# [1] = target: KDR (Homo sapiens, UniProt P35968); experiment: KDR HTRF in vitro kinase assay; format: biochemical; design: purified enzyme (His6-KDR 789-1354, MW 63 kD); His6 (N); conditions: 1 mM ATP; read-out: KDR enzyme inhibition data (Ki)
# Method in brief: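 His6-KDR 789-1354 (7 ng/well) with 0.5 μM biotinylated peptide substrate and 1 mM ATP in HEPES pH 7.1, MgCl2/MnCl2, 60 min at room temperature. EDTA-quenched, detected by streptavidin-XL-665 plus Eu-kryptate anti-phosphotyrosine HTRF after 3 h; IC50 from 620/665 nm ratio.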
# [2] = target: T1, Aurora A (Homo sapiens, UniProt O14965); experiment: Aurora A enzyme inhibition (time-resolved fluorescence, STK substrate-2); format: biochemical; conditions: 1 mM ATP
# T1 sequence (O14965 1-403): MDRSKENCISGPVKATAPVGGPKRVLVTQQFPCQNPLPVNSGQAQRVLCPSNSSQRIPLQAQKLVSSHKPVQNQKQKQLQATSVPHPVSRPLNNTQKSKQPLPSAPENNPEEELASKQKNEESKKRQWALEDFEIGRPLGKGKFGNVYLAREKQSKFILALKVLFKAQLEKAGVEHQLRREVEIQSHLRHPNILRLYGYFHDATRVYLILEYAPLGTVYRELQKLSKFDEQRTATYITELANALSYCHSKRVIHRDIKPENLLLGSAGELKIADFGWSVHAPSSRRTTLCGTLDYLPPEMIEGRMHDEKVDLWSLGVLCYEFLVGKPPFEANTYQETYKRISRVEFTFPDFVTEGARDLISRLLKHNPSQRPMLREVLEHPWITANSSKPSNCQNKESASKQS
# Method in brief: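 Active enzyme incubated 1 h with biotinylated STK substrate-2, 1 mM ATP and inhibitor in Hepes pH 7.4 with MgCl2, orthovanadate and Triton X-100. EDTA stop; phosphopeptide detected by Eu-cryptate anti-phospho-STK/SA-XL665 TR-FRET (665/615 nm ratio); IC50 by exponential fit.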
# [3] = tested on: NCI-H1299 cells; experiment: Induction of polyploidy in H1299; format: cell-based, Human; conditions: NCI-H1299, 48 hours
# Protocol: To determine the induction of polyploidy in H1299 cells, NCI-H1299 were seeded (4K/well) into 96-well culture plates (tissue culture grade, black, flat-clear bottom) and incubated overnight to produce cell-to-plate adherence. Inhibitors at varying concentrations were added into duplicate wells containing cells and culture media (RPMI 1640, 10% fetal calf serum) and incubated at 37 C for 48 hours. The plates were then washed with PBS and the adherent cells fixed by incubating with 3% formalin for 1 hour. After washing four times with PBS, the cells were then stained with Hoechst and subjected to fluorescent (360 i/460e) microscopic high content analysis to determine the effect of inhibitors on nuclear size. Polyploid cells (≧4N) were defined as those having nuclear area>750μ^2. Potency was expressed as the concentration of inhibitor necessary to induce polyploidy in 15% of cells (EC15) and was calculated from least squares analysis of the log dose-response.
# [4] = target: T2, Aurora B (Homo sapiens, UniProt Q96GD4); experiment: Aurora B enzyme inhibition (time-resolved fluorescence, histone H3 peptide); format: biochemical; conditions: 1 mM ATP
# T2 construct: Active Aurora B enzyme (recombinant residues 1-344)
# Method in brief: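 Recombinant Aurora B (residues 1-344) with GST-INCENP phosphorylated biotinylated histone H3 (1-21) peptide at 1 mM ATP in HEPES pH 7.4 with MgCl2, orthovanadate and Triton X-100 for 1 h. After EDTA stop, the phosphopeptide was detected by TR-FRET (Eu-cryptate anti-phospho-H3 / SA-APC, 665/615 nm ratio). IC50 from an exponential fit.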
# Chain of KDR (P35968 789-1354): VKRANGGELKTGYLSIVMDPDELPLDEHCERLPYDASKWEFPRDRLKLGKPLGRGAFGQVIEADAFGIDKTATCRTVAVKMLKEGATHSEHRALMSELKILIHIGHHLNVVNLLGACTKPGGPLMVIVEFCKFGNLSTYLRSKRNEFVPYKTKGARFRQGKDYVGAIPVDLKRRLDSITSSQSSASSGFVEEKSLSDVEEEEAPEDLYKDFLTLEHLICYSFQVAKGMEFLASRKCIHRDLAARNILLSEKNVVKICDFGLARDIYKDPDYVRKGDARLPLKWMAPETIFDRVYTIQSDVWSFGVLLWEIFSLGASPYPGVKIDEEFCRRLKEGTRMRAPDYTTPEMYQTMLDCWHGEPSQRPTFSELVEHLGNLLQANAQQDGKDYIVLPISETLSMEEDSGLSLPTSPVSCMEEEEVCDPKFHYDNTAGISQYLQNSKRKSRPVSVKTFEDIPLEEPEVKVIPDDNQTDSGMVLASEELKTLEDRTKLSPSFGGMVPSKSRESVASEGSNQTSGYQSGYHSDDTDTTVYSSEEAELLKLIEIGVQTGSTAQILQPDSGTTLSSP
# T2 sequence (Q96GD4 whole entry, the tested form may be a part): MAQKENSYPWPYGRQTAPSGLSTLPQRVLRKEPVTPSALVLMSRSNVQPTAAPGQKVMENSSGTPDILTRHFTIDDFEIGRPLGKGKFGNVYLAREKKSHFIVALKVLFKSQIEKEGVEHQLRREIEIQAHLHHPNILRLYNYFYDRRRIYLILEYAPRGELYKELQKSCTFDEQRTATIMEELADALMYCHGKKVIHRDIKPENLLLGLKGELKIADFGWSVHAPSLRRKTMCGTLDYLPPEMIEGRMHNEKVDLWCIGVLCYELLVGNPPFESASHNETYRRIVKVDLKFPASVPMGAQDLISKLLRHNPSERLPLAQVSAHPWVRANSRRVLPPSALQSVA
# T2 sequence (Q9NQS7 826-918 partner limits assumed): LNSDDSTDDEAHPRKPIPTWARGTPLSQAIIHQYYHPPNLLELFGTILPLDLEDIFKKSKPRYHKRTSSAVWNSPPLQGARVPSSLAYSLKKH
pKi [1],pKi [2],pKi [4],Compound,EC15 (concentration of inhibitor necessary to induce polyploidy in 15% of cells) [3]
6.00 to 7.00,6.00 to 7.00,> 7.00,"Cc1cnc(Nc2cnn(C)c2)nc1N[C@@H]1[C@H](C(N)=O)[C@H]2C=C[C@@H]1C2.Cc1cnc(Nc2cnn(C)c2)nc1N[C@H]1[C@@H](C(N)=O)[C@@H]2C=C[C@H]1C2 (mixture of isomers) [Example 17, (1S,2S,3R,4R)-3-({5-methyl-2-[(1-methyl-1H-pyrazol-4-yl)amino]pyrimidin-4-yl}amino)bicyclo[2.2.1]hept-5-ene-2-carboxamide and (1R,2R,3S,4S)-3-({5-methyl-2-[(1-methyl-1H-pyrazol-4-yl)amino]pyrimidin-4-yl}amino)bicyclo[2.2.1]hept-5-ene-2-carboxamide]",A (“A” represents an EC15 of less than 0.1 μM)
6.00 to 7.00,6.00 to 7.00,6.00 to 7.00,"Cc1cnc(Nc2cnn(CCO)c2)nc1N[C@@H]1[C@H](C(N)=O)[C@H]2C=C[C@@H]1C2.Cc1cnc(Nc2cnn(CCO)c2)nc1N[C@H]1[C@@H](C(N)=O)[C@@H]2C=C[C@H]1C2 (mixture of isomers) [Example 18, (1S,2S,3R,4R)-3-[(2-{[1-(2-hydroxyethyl)-1H-pyrazol-4-yl]amino}-5-methylpyrimidin-4-yl)amino]bicyclo[2.2.1]hept-5-ene-2-carboxamide and (1R,2R,3S,4S)-3-[(2-{[1-(2-hydroxyethyl)-1H-pyrazol-4-yl]amino}-5-methylpyrimidin-4-yl)amino]bicyclo[2.2.1]hept-5-ene-2-carboxamide]",A (“A” represents an EC15 of less than 0.1 μM)
6.00 to 7.00,6.00 to 7.00,> 7.00,"Cn1cc(Nc2ncc(C(F)(F)F)c(N[C@@H]3C[C@H]4CC[C@@H]3C4)n2)cn1.Cn1cc(Nc2ncc(C(F)(F)F)c(N[C@H]3C[C@@H]4CC[C@H]3C4)n2)cn1 (mixture of isomers) [Example 23, N^4-[(1S,2S,4R)-bicyclo[2.2.1]hept-2-yl]-N^2-(1-methyl-1H-pyrazol-4-yl)-5-(trifluoromethyl)pyrimidine-2,4-diamine and N^4-[(1R,2R,4S)-bicyclo[2.2.1]hept-2-yl]-N^2-(1-methyl-1H-pyrazol-4-yl)-5-(trifluoromethyl)pyrimidine-2,4-diamine]",B (“B” represents an EC15 of between 0.1 μM and 1 μM)
6.00 to 7.00,6.00 to 7.00,> 7.00,"Cn1cc(Nc2ncc(C(F)(F)F)c(N[C@@H]3CCC[C@@H]3C(N)=O)n2)cn1.Cn1cc(Nc2ncc(C(F)(F)F)c(N[C@H]3CCC[C@H]3C(N)=O)n2)cn1 (mixture of isomers) [Example 25, (1S,2R)-2-{[2-[(1-methyl-1H-pyrazol-4-yl)amino]-5-(trifluoromethyl)pyrimidin-4-yl]amino}cyclopentanecarboxamide and (1R,2S)-2-{[2-[(1-methyl-1H-pyrazol-4-yl)amino]-5-(trifluoromethyl)pyrimidin-4-yl]amino}cyclopentanecarboxamide]",A (“A” represents an EC15 of less than 0.1 μM)
5.30 to 6.00,5.30 to 6.00,> 7.00,"Cn1cc(Nc2ncc(C(F)(F)F)c(N[C@@H]3CC=CC[C@@H]3C(N)=O)n2)cn1.Cn1cc(Nc2ncc(C(F)(F)F)c(N[C@H]3CC=CC[C@H]3C(N)=O)n2)cn1 (mixture of isomers) [Example 26, (1S,6R)-6-{[2-[(1-methyl-1H-pyrazol-4-yl)amino]-5-(trifluoromethyl)pyrimidin-4-yl]amino}cyclohex-3-ene-1-carboxamide and (1R,6S)-6-{[2-[(1-methyl-1H-pyrazol-4-yl)amino]-5-(trifluoromethyl)pyrimidin-4-yl]amino}cyclohex-3-ene-1-carboxamide]",A (“A” represents an EC15 of less than 0.1 μM)

Compound,pKi [1],pKi [2],pKi [4],EC15 (concentration of inhibitor necessary to induce polyploidy in 15% of cells) [3]
"Cn1cc(Nc2ncc(Cl)c(N[C@@H]3[C@H](C(N)=O)[C@@H]4C=C[C@H]3C4)n2)cn1.Cn1cc(Nc2ncc(Cl)c(N[C@H]3[C@@H](C(N)=O)[C@H]4C=C[C@@H]3C4)n2)cn1 (mixture of isomers) [Example 120, (1S,2R,3S,4R)-3-({5-chloro-2-[(1-methyl-1H-pyrazol-4-yl)amino]pyrimidin-4-yl}amino)bicyclo[2.2.1]hept-5-ene-2-carboxamide and (1R,2S,3R,4S)-3-({5-chloro-2-[(1-methyl-1H-pyrazol-4-yl)amino]pyrimidin-4-yl}amino)bicyclo[2.2.1]hept-5-ene-2-carboxamide]",> 7.00,> 7.00,> 7.00,B (“B” represents an EC15 of between 0.1 μM and 1 μM)
"(1S,2S,3R,4R)-3-({5-fluoro-2-[(1-methyl-1H-pyrazol-4-yl)amino]pyrimidin-4-yl}amino)bicyclo[2.2.1]hept-5-ene-2-carboxamide and (1R,2R,3S,4S)-3-({5-fluoro-2-[(1-methyl-1H-pyrazol-4-yl)amino]pyrimidin-4-yl}amino)bicyclo[2.2.1]hept-5-ene-2-carboxamide [Example 1]",6.00 to 7.00,> 7.00,> 7.00,B (“B” represents an EC15 of between 0.1 μM and 1 μM)
